System: cardiomyocytes
Test: live cell imaging of changes in cell areas after stimulation (FIG. 17A)
Type: cell-based
Conditions: for changes in cell areas vs Ctrl: after 9 h, Ctrl vs PE/Ins; for early dynamics of cell area: early dynamics (<2.5 h), compared with ctrl (no increase)
Procedure: Image acquisition can be performed with a microscope. Preferably, this is performed at the end of the experiment. In other embodiments, the image acquisition is performed during the course of the experiment to analyze the cell response over time (video, live cell imaging).
In order to perform time series analysis, imaging of cells can happen multiple times with live cell fluorescent dyes. This allows visualizing the dynamics of cell morphological changes over time. Experiments have shown that certain dynamics leads to a characteristic set of meta-features associated with certain diagnoses, prognoses, and/or individualized therapy.

Compound	changes in cell areas vs Ctrl	early dynamics of cell area
CNC[C@H](O)c1cccc(O)c1 [PE, phenylephrine]	differences following stimulation can be observed	steep increase
insulin	differences following stimulation can be observed	less steep increase

From patent US20230352149A1, “Single-cell morphology analysis for disease profiling and drug discovery” (Universität Heidelberg, priority 2020, published 2023)
